Our source for the IC50 values is patent EP3720857B1, “2-OXO-5H-CHROMENO[4,3-B]PYRIDINES FOR USE IN THE TREATMENT OF HEPATITIS B” (Galapagos NV, priority 2017, dated 2019).

SMILES strings stand for the structures. pIC50: −log10 of the molar value.

The assay concerns hepatitis virus B (HBV) infection. The assay can be described thus: HepG2 NTCP assay (HBcAg staining as marker of HBV infection). The note with it: HepG2-NTCP cells infected with HBV, HBV core antigen (HBcAg) as marker of infection. The assay is classed as cell-based. The source says: The principle of the hepG2-NTCP assay is to measure the effect of a test compound on the inhibition of the hepatitis virus B (HBV) infection compared to a reference compound. To be able to infect the hepatocellular carcinoma cells (HepG2) with HBV, HepG2 cells were stably transfected with the Na+-taurocholate co-transporting polypeptide (NTCP) receptor, also referred to as Sodium/bile acid cotransporter (SLC10A1), which is necessary for HBV infection. In this assay the HBV core antigen (HBcAg) is used as a marker of HBV infection. Nuclei count is used as an indication for compound toxicity.
On day one, HepG2-NTCP cells ((Ni et al., 2014)) are seeded at 5000 cells in 50 µL per well in assay medium (DMEM high glucose supplemented with 10% non-heat inactivated (non HI) fetal bovine serum (FBS), 1% P/S, 1% L-glutamine and 1% MEM NEAA) in 384 well plate and incubated at 37°C, 5% CO2 overnight.
Compounds are prepared as 10 point serial dilutions using 1/3 dilution steps in 100% DMSO starting from 10 mM highest concentration, unless otherwise requested for very potent compounds, which started from 5mM or 1mM stock. Compounds are further diluted 1/500 in assay medium.
A negative control (vehicle: 24 wells with 0.2% DMSO) and positive control (24 wells with 100nM Myrcludex B (Cas no.: 406461-66-3), 0.2% DMSO and in 10 point DR) are included in the experiments.
On the second day, 40µl medium is removed from the cells with the plate washer (Select 405 microplate washer, Biotek). 15 µL of diluted compound series is transferred to the assay plate and cells are infected with 15 µL of HBV mix (HBV virus, 4%PEG, 1%DMSO in assay medium). The infection is performed in assay medium containing final concentration of 1% DMSO. The assay plate is incubated at 37°C, 5% CO2 overnight.
The next day, 30µl compound and HBV mix are removed from the assay plate with the plate washer and 30 µL of compound series diluted 1/500 in assay medium containing final concentration of 2.5% DMSO is added to the cell assay plate. The assay plate is incubated at 37°C, 5% CO2 for 5 days.
After 5 days of incubation, supernatant is removed from the cells with the plate washer. Cells are fixed with 50 µL of 3.7% formaldehyde added with the Well mate (Matrix technologies) and incubated for 30 min at room temperature. After fixation, cells are washed four times with phosphate buffer saline (1xPBS, 137mM NaCl, 10mM na2HPO4, 2.7mM KCl, 1.8mM KH2PO4 at pH7.4). The cells are finally subjected to HBc staining.
First, the assay plate is blocked with blocking buffer (2%FBS, 3% BSA, 0.2% TritonX100 in PBS) for 1 h at room temperature (optional to block overnight at 4°C).
After 4 washes of PBST (1XPBS + 0.05% Tween) with the plate washer, the assay plate is incubated with 30 µL diluted primary antibody (1/700 Rabbit anti-HBV core antigen, Dako, B0586 or 1/350 Rabbit anti HBV core antigen, Invitrogen, PA516368) in blocking buffer and incubated for 90 min at room temperature.
After 4 washes of PBST with the plate washer, the assay plate is incubated with 50 µL of secondary antibody (Donkey-anti-rabbit Alexa 488 antibody, Lifetechnologies A21206) 1/500 diluted in blocking buffer and incubated for 60 min at room temperature and in the dark.
The assay plate is washed 4 times with PBST on the plate washer and incubated with 50µL of DAPI (Sigma D9542, stock 5mg/mL) 1/10000 diluted in PBS for 15-30 min at room temperature and in the dark. The assay plate is now ready for read out on the InCell Analyzer 2200 (GE Healthcare).
Raw data are generated following read-out performed on InCell 2200 and are imported into the galapagos LIMS for automated calculation of percentage inhibition (PIN) and toxicity by nuclei count, using the control wells mentioned above, and creation of Dose Response curves. Table V. Hepg2 NTCP assay activity of illustrative compounds of the invention
For orientation: pIC50 means −log10 of the IC50, conventionally taken in molar units. Low values mean a large IC50, high ones a small IC50. Molecule `CC(C)C1Oc2cc(OCC3COC3)c(Cl)cc2-c2c1cc(C(=O)O)c(=O)n2C1CC1` (stereo not shown) [Compound 5, 9-chloro-1-cyclopropyl-5-isopropyl-8-(oxetan-3-ylmethoxy)-2-oxo-5H-chromeno[4,3-b]pyridine-3-carboxylic acid] gave a pIC50 of 9.00 to 12.00.

As for `CC(C)C1Oc2cc(OCC3COCCO3)c(Cl)cc2-c2c1cc(C(=O)O)c(=O)n2C1CC1` (stereo not shown) [Compound 7, 9-chloro-1-cyclopropyl-8-(1,4-dioxan-2-ylmethoxy)-5-isopropyl-2-oxo-5H-chromeno[4,3-b]pyridine-3-carboxylic acid], the pIC50 was 9.00 to 12.00.

Turning to `COCCCOc1ccc2c(c1Cl)OC(C(C)C)c1cc(C(=O)O)c(=O)n(C3CC3)c1-2` (stereo not shown) [Compound 8, 7-chloro-1-cyclopropyl-5-isopropyl-8-(3-methoxypropoxy) -2-oxo-5H-chromeno[4,3-b]pyridine-3-carboxylic acid], the pIC50 was 7.70 to 9.00.

On to `COc1cc2c(cc1OC)-c1c(cc(C(=O)O)c(=O)n1C1CC1)C(C(C)(C)C)O2` (stereo not shown) [Compound 9, 5-tert-butyl-1-cyclopropyl-8,9-dimethoxy-2-oxo-5H-chromeno[4,3-b]pyridine-3-carboxylic acid], for which the negative-log IC50 (pIC50) is 7.70 to 9.00.

Regarding `COCCCOc1cc2c(cc1OC)-c1c(cc(C(=O)O)c(=O)n1C1CC1)C(C(C)C)O2` (stereo not shown) [Compound 10, 1-cyclopropyl-5-isopropyl-9-methoxy-8-(3-methoxypropoxy) -2-oxo-5H-chromeno[4,3-b]pyridine-3-carboxylic acid], the pIC50 was 7.70 to 9.00.

Molecule `CCC1Oc2cc(OCCCOC)c(Cl)cc2-c2c1cc(C(=O)O)c(=O)n2C1CC1` (stereo not shown) [Compound 11, 9-chloro-1-cyclopropyl-5-ethyl-8-(3-methoxypropoxy) -2-oxo-5H-chromeno[4,3-b]pyridine-3-carboxylic acid] showed a pIC50 of 9.00 to 12.00.

Take `CCC1Oc2cc(OCCCOC)c(OC)cc2-c2c1cc(C(=O)O)c(=O)n2C1CC1` (stereo not shown) [Compound 12, 1-cyclopropyl-5-ethyl-9-methoxy-8-(3-methoxypropoxy) -2-oxo-5H-chromeno[4,3-b]pyridine-3-carboxylic acid]: the negative logarithm of the IC50 (pIC50) is 7.70 to 9.00.

Consider `COCCCOc1cc2c(cc1Cl)-c1c(cc(C(=O)O)c(=O)n1C1CC1)C(C1COC1)O2` (stereo not shown) [Compound 13, 9-chloro-1-cyclopropyl-8-(3-methoxypropoxy) -5-(oxetan-3-yl)-2-oxo-5H-chromeno[4,3-b] pyridine-3-carboxylic acid], for which the negative logarithm of the IC50 (pIC50) is 9.00 to 12.00.

On to `COCCCOc1cc2c(cc1Cl)-c1c(cc(C(=O)O)c(=O)n1C1CC1)C(C)(C)O2` [Compound 14, 9-chloro-1-cyclopropyl-8-(3-methoxypropoxy) -5,5-dimethyl-2-oxo-chromeno [4,3-b]pyridine-3-carboxylic acid], for which the pIC50 was 7.70 to 9.00.

Molecule `CCC1Oc2cc(OC)c(OC)cc2-c2c1cc(C(=O)O)c(=O)n2C1CC1` (stereo not shown) [Compound 15, 1-cyclopropyl-5-ethyl-8,9-dimethoxy-2-oxo-5H-chromeno[4,3-b]pyridine-3-carboxylic acid] showed a pIC50 of 7.00 to 7.70.

Consider `COc1cc2c(cc1OC)-c1c(cc(C(=O)O)c(=O)n1C1CC1)C(CO)O2` (stereo not shown) [Compound 18, 1-cyclopropyl-5-(hydroxymethyl)-8,9-dimethoxy-2-oxo-5H-chromeno[4,3-b]pyridine-3-carboxylic acid], for which the pIC50 is 7.00 to 7.70.

On to `[2H]C([2H])([2H])Oc1cc2c(cc1OC)-c1c(cc(C(=O)O)c(=O)n1C1CC1)C(C(C)C)O2` (stereo not shown) [Compound 20, 1-cyclopropyl-5-isopropyl-9-methoxy-2-oxo-8-(trideuteriomethoxy)-5H-chromeno[4,3-b]pyridine-3-carboxylic acid], for which the pIC50 is 7.70 to 9.00.

`COc1cc2c(cc1Cl)-c1c(cc(C(=O)O)c(=O)n1C1CC1)C(C1COC1)O2` (stereo not shown) [Compound 21, 9-chloro-1-cyclopropyl-8-methoxy-5-(oxetan-3-yl)-2-oxo-5H-chromeno[4,3-b]pyridine-3-carboxylic acid] gave a pIC50 of 7.70 to 9.00.
